Patent US7550463B2, “Carbamoylpyridone derivatives having inhibitory activity against HIV integrase” (Shionogi & Co., Ltd., priority 2004, dated 2009)

Key:
HIV integrase = HIV integrase (Human immunodeficiency virus type 1 group M subtype B, UniProt P04585); assay: HIV integrase inhibitory activity assay (immunoplate, substrate DNA / target DNA, OD 405 nm); assay type: biochemical; conditions: read-out: Integrase inhibitory activity (IC50, ng/ml) (converted)
Protocol: The HIV integrase inhibitory activity was examined based on an assay method shown below.
(1) Preparation of DNA Solution
According to the same method as the method described in Test Example 1 of WO 2004/024693, a substrate DNA solution (2 pmol/μl) and a target DNA solution (5 pmol/μl) were prepared. […] Each sequence of a substrate DNA and a target DNA is as described in the same Test Example.
(2) Measurement of Inhibition Rate (IC50 Value)
Streptavidin (manufactured by Vector Laboratories) was dissolved in a 0. 1M carbonate buffer (composition: 90 mM Na2CO3, 10 mM NaHCO3 )to a concentration of 40 μg/ml. Each 50 μl of this solution was added to a well of an immunoplate (manufactured by NUNC), and this was allowed to stand at 4° C. overnight to perform adsorption. Then, each well was washed with, a phosphate buffer (composition: 13.7 mM NaCl, 0.27 mM KCl, 0.43 mM. Na2HPO4, 0.14 mM KH2PO4) two times, 300 μl of a phosphate buffer containing 1% skim milk was added, and blocking was performed for 30 minutes. […]
Each plate was incubated at 30° C. for 10 minutes, and the reaction solution was discarded, followed by washing with a phosphate buffer two times. […] Inhibition rate (%)=100[1−{(C abs.−NC abs.)/(PC abs.−NC abs.)}] • C abs.; absorbance of well of compound • NC abs.: absorbance of NC • PC abs.: absorbance of PC

Row | melting point [°C] | SMILES | IC50 (HIV integrase) [nM]
1 | – | COC(=O)c1[nH]cc(C(=O)NCc2ccc(F)cc2)c(=O)c1O [Compound A-1a, Methyl 5-(4-fluorobenzylcarbamoyl)-3-hydroxy-4-oxo-1,4-dihydropyridine-2-carboxylate] | 20
2 | 279 to 280 | O=C(NCc1ccc(F)cc1)c1[nH]cc(C(=O)NCc2ccc(F)cc2)c(=O)c1O | –
3 | – | O=C(O)c1[nH]cc(C(=O)NCc2ccc(F)cc2)c(=O)c1O [Compound A-3] | 10.1
